Several values for one entry are separate records, joined by “and”; a condition that tells them apart may be missing. Equal entries are not always repeated. Values belong to the compound of their own block, whether it stands above or below them.
Experiments:
[1] = Binary (carrier), ternary and quaternary supramolecular self-assembly systems of polymer, carrier building block and target: guest concentration over incubation time (Examples 1-56); type: physicochemical; settings: for Concentration of guest molecule in solution / Times that of the initial medium: 6 h
Protocol: pH 2.0 hydrochloric acid, pH 4.5 acetate, and pH 6.5, pH 6.8, or pH 7.4 phosphate buffer solutions were prepared. The selection of each initial medium followed the principle that the solubility in the initial medium of the selected targets (or active ingredients) should low enough, but should meet the detection sensitivity and accuracy requirements of the corresponding analytical methods. Each buffer as initial media was placed in a 50 ml test tube with a stopper, shaken in a constant temperature air shaker at 37° C.±0.5° C., with an amplitude of 200 rpm, and incubated for 1 hour. […] Samples were taken at 0.5 h, 3 h and 6 h after incubation, centrifuged at 37° C., 13000 rpm for 5 minutes, and the supernatant was diluted at least 10 times with the mobile phase under the target analyte analytical method, filtered, the initial filtrate was discarded, and the continued filtrate was used as the test solution for injection analysis. The corresponding HPLC method under each target object item in Table 8 was used to determine the content of each target substance. When the solubility of the target in the initial medium is below the quantitative limit of the analytical method, a small amount of surfactant, such as sodium dodecyl sulfate (SDS), Tween20, or Tween80, can be added appropriately.
Experiments were conducted according to the steps in Comparative Example 1, and quantitative analysis was carried out using the analytical method for each target to investigate the regulation ability of each binary supramolecular self-assembly system built from 0.5% polymer and target on guest molecules stacking.
Ternary supramolecular self-assembly systems based on different polymers, carrier building blocks, and targets were built according to the experimental scheme in Table 12, to investigate the influence of synergistic regulation of the carrier building blocks and the polymers on the stacking of target molecules, as well as the stability of the supramolecular self-assembly systems jointly built by them over incubation time. The initial medium, quantitative analysis method, pre-treatment method, and initial theoretical concentration of the target, corresponding to each target molecule in the experiment, were consistent with those in Comparative Examples 1 and 2. After a target was added to the system, the target was uniformly dispersed by ultrasonication at 37° C. for half an hour and then shaken in a 37° C. constant temperature air shaker, and samples were collected after different incubation time, i.e. 0.5 h, 1 h, 2 h, 3 h, 4 h, and 6 h.

[2] = Binary supramolecular self-assembly systems of polymer and target: guest concentration over incubation time (Comparative Example 2); type: physicochemical; settings: for Times that of the initial medium / Concentration of guest molecule in solution: 6 h
Protocol: Experiments were conducted according to the steps in Comparative Example 1, and quantitative analysis was carried out using the analytical method for each target to investigate the regulation ability […] stacking.

[3] = cited from earlier work
[4] = Guest molecule concentration after incubation in initial medium without polymer (Comparative Example 1); type: physicochemical; settings: 37° C.
Procedure, shortened: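 Dissolved guest content measured by HPLC of centrifuged supernatants (37° C., 13000 rpm, 5 min) sampled at 0.5 h, 3 h and 6 h. Incubation was polymer-free at 37° C.±0.5° C. in buffers of pH 2.0-7.4; nominal loading was set by maximum clinical dose.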

[5] = ternary: 102H (0.25% where stated) + 301, carrier % not stated
[6] = ternary: 102H (0.25% where stated) + 302, carrier % not stated
[7] = binary system with 0.5% polymer 102, incubation 0.5 h
[8] = binary system with 0.5% polymer 102, incubation 3 h
[9] = binary system with 0.5% polymer 102, incubation 6 h
[10] = binary system with 0.5% polymer 103, incubation 0.5 h
[11] = binary system with 0.5% polymer 103, incubation 3 h
[12] = binary system with 0.5% polymer 103, incubation 6 h
[13] = binary system with 0.5% polymer 104, incubation 0.5 h
[14] = binary system with 0.5% polymer 104, incubation 3 h
[15] = binary system with 0.5% polymer 104, incubation 6 h
[16] = binary system with 0.5% polymer 101, incubation 0.5 h
[17] = binary system with 0.5% polymer 101, incubation 3 h
[18] = binary system with 0.5% polymer 101, incubation 6 h
[19] = binary system with 0.5% polymer 106, incubation 0.5 h
[20] = binary system with 0.5% polymer 106, incubation 3 h
[21] = binary system with 0.5% polymer 106, incubation 6 h
[22] = binary system with 0.5% polymer 107, incubation 0.5 h
[23] = binary system with 0.5% polymer 107, incubation 3 h
[24] = binary system with 0.5% polymer 107, incubation 6 h
[25] = 0.5 h, 0.05% Tween 20 in pH 6.8 phosphate buffer
[26] = 3 h, 0.05% Tween 20 in pH 6.8 phosphate buffer
[27] = 6 h, 0.05% Tween 20 in pH 6.8 phosphate buffer
[28] = 0.25% 205 (102H+104) + 0.25% 301
[29] = quaternary: 204 (102H+103E5) + 0.5% 301
[30] = ternary: 102H + 313 at further increased mass percentage
[31] = ternary: 102H + 318 at further increased mass percentage

- Concentration of guest molecule in solution [1, 5]: 168.1 µg/mL
- Times that of the initial medium [1, 5]: 26 times
- Concentration of guest molecule in solution [1, 6]: 188.6 µg/mL
- Times that of the initial medium [1, 6]: 29.5 times
- Concentration of the target in the solution measured after different incubation time [2, 7]: 109.4 µg/mL
- Concentration of the target in the solution measured after different incubation time [2, 8]: 117.2 µg/mL
- Concentration of the target in the solution measured after different incubation time [2, 9]: 138.9 µg/mL
- Concentration of the target in the solution measured after different incubation time [2, 10]: 8.4 µg/mL
- Concentration of the target in the solution measured after different incubation time [2, 11]: 6.9 µg/mL
- Concentration of the target in the solution measured after different incubation time [2, 12]: 0.9 µg/mL
- Concentration of the target in the solution measured after different incubation time [2, 13]: 6.8 µg/mL
- Concentration of the target in the solution measured after different incubation time [2, 14]: 3.6 µg/mL
- Concentration of the target in the solution measured after different incubation time [2, 15]: 2.7 µg/mL
- Times that of the initial medium ([2]; binary: 0.5% 101): 18 times
- Concentration of guest molecule in solution ([2]; binary: 0.5% 102H): 86.6 µg/mL
- Times that of the initial medium ([2]; binary: 0.5% 102H): 13.5 times
- Concentration of guest molecule measured after different incubated time ([4]; 0.5 h, 0.05% SDS in pH 6.8 phosphate buffer): 6.6 µg/mL
- Concentration of guest molecule measured after different incubated time ([4]; 3 h, 0.05% SDS in pH 6.8 phosphate buffer): 6.2 µg/mL
- Concentration of guest molecule measured after different incubated time ([4]; 6 h, 0.05% SDS in pH 6.8 phosphate buffer): 6.4 µg/mL
SMILES: O=C1[C@H](CC[C@H](O)c2ccc(F)cc2)[C@@H](c2ccc(O)cc2)N1c1ccc(F)cc1 [Ezetimibe]
- LogD7.4 or Log P [3]: 4.56

- Concentration of guest molecule in solution ([1]; ternary: 0.25% 102H + 1.0% 313): 662 µg/mL
- Times that of the initial medium ([1]; ternary: 0.25% 102H + 1.0% 313): about 32.5 times
- Concentration of the target in the solution measured after different incubation time [2, 16]: 144.8 µg/mL
- Concentration of the target in the solution measured after different incubation time [2, 17]: 152.8 µg/mL
- Concentration of the target in the solution measured after different incubation time [2, 18]: 147.5 µg/mL
- Concentration of the target in the solution measured after different incubation time [2, 7]: 459.9 µg/mL
- Concentration of the target in the solution measured after different incubation time [2, 8]: 472.0 µg/mL
- Concentration of the target in the solution measured after different incubation time [2, 9]: 459.4 µg/mL
- Concentration of the target in the solution measured after different incubation time [2, 10]: 18.9 µg/mL
- Concentration of the target in the solution measured after different incubation time [2, 11]: 18.9 µg/mL
- Concentration of the target in the solution measured after different incubation time [2, 12]: 22.2 µg/mL
- Concentration of the target in the solution measured after different incubation time [2, 19]: 33.5 µg/mL
- Concentration of the target in the solution measured after different incubation time [2, 20]: 30.2 µg/mL
- Concentration of the target in the solution measured after different incubation time [2, 21]: 23.6 µg/mL
- Concentration of the target in the solution measured after different incubation time [2, 22]: 51.2 µg/mL
- Concentration of the target in the solution measured after different incubation time [2, 23]: 26.7 µg/mL
- Concentration of the target in the solution measured after different incubation time [2, 24]: 11.8 µg/mL
- Concentration of guest molecule in solution ([2]; binary: 0.25% 102H): 276 µg/mL
- Times that of the initial medium ([2]; binary: 0.25% 102H): about 13.5 times
- Concentration of guest molecule measured after different incubated time [4, 25]: 18.1 µg/mL
- Concentration of guest molecule measured after different incubated time [4, 26]: 17.8 µg/mL
- Concentration of guest molecule measured after different incubated time [4, 27]: 20.4 µg/mL
SMILES: CCOC(=O)C1=C(C)NC(C)=C(C(=O)OC)C1c1cccc(Cl)c1Cl (stereo not shown) [Felodipine]
- LogD7.4 or Log P [3]: 3.90

- Concentration of guest molecule in solution [1, 28]: 157.4 µg/mL
- Times that of the initial medium [1, 28]: 8.6 times
- Concentration of guest molecule in solution ([1]; binary, no polymer: 0.5% 301): 156.9 µg/mL
- Times that of the initial medium ([1]; binary, no polymer: 0.5% 301): 8.5 times
- Concentration of guest molecule in solution [1, 29]: 206.4 µg/mL
- Times that of the initial medium [1, 29]: 11 times
- Encapsulation rate for the guest molecule ([1]; ternary: 0.25% 102H + 0.5% 319): ~100%
- Concentration of guest molecule in solution [1, 5]: 446.0 µg/mL
- Times that of the initial medium [1, 5]: about 25 times
- Concentration of guest molecule in solution [1, 6]: 410.7 µg/mL
- Times that of the initial medium [1, 6]: 22 times
- Concentration of guest molecule in solution ([1]; ternary: 102H + 313, carrier % not given): 436.6 µg/mL
- Encapsulation rate for the guest molecule [1, 30]: ~100%
- Concentration of guest molecule in solution [1, 30]: 792.1 µg/mL
- Times that of the initial medium [1, 30]: 43 times
- Concentration of guest molecule in solution ([1]; ternary: 102H + 318, carrier % not stated): 429.9 µg/mL
- Concentration of guest molecule in solution [1, 31]: 774.7 µg/mL
- Times that of the initial medium [1, 31]: 42 times
- Concentration of the target in the solution measured after different incubation time [2, 16]: 48.5 µg/mL
- Concentration of the target in the solution measured after different incubation time [2, 17]: 93.5 µg/mL
- Concentration of the target in the solution measured after different incubation time [2, 18]: 95.3 µg/mL
- Concentration of the target in the solution measured after different incubation time [2, 7]: 168.1 µg/mL
- Concentration of the target in the solution measured after different incubation time [2, 8]: 176.4 µg/mL
- Concentration of the target in the solution measured after different incubation time [2, 9]: 154.5 µg/mL
- Concentration of the target in the solution measured after different incubation time [2, 10]: 44.1 µg/mL
- Concentration of the target in the solution measured after different incubation time [2, 11]: 17.8 µg/mL
- Concentration of the target in the solution measured after different incubation time [2, 12]: 17.1 µg/mL
- Concentration of the target in the solution measured after different incubation time [2, 13]: 13.4 µg/mL
- Concentration of the target in the solution measured after different incubation time [2, 14]: 13.7 µg/mL
- Concentration of the target in the solution measured after different incubation time [2, 15]: 14.3 µg/mL
- Concentration of the target in the solution measured after different incubation time [2, 19]: 33.8 µg/mL
- Concentration of the target in the solution measured after different incubation time [2, 20]: 65.9 µg/mL
- Concentration of the target in the solution measured after different incubation time [2, 21]: 68.4 µg/mL
- Concentration of the target in the solution measured after different incubation time [2, 22]: 47.9 µg/mL
- Concentration of the target in the solution measured after different incubation time [2, 23]: 53.1 µg/mL
- Concentration of the target in the solution measured after different incubation time [2, 24]: 56.0 µg/mL
- Concentration of guest molecule in solution ([2]; binary: 0.25% 102H): 260.2 µg/mL
- Times that of the initial medium ([2]; binary: 0.25% 102H): 14 times and 14.5 times
- Concentration of guest molecule measured after different incubated time [4, 25]: 16.5 µg/mL
- Concentration of guest molecule measured after different incubated time [4, 26]: 17.9 µg/mL
- Concentration of guest molecule measured after different incubated time [4, 27]: 18.4 µg/mL
SMILES: C=CC(=O)N1CCC[C@@H](n2nc(-c3ccc(Oc4ccccc4)cc3)c3c(N)ncnc32)C1 [Ibrutinib]
- LogD7.4 or Log P [3]: 3.63
